Results published in patent US20240025891A1 (Celgene Corporation, priority 2020, published 2024).

System: Onchocerca gutturosa adult male worms
Assay: Onchocerciasis in vitro screening model Onchocerca gutturosa (worm motility score and MTT/formazan colorimetry)
Conditions: Onchocerca gutturosa, read-out: O. gutt Act class

| SMILES | IC50 [nM] |
| --- | --- |
| Cc1ccnc(Nc2nc(-c3ncccc3-c3ccccc3)cs2)c1 [Example 103, N-(4-methylpyridin-2-yl)-4-(3-phenylpyridin-2-yl)thiazol-2-amine] | < 200 |
| Cc1ccnc(Nc2nc(-c3ncccn3)cs2)c1 [Example 107, N-(4-methylpyridin-2-yl)-4-(pyrimidin-2-yl)thiazol-2-amine] | 500 to 5000 |
| Fc1ccc(-c2csc(Nc3cc(C(F)(F)F)c(Br)cn3)n2)nc1 [Example 109, N-(5-bromo-4-(trifluoromethyl)pyridin-2-yl)-4-(5-fluoropyridin-2-yl)thiazol-2-amine] | 200 to 500 |
| Cc1cccnc1Nc1cnc(-c2ccc(OC3CCOCC3)cn2)s1 [Example 111, N-(3-methylpyridin-2-yl)-2-(5-(tetrahydro-2H-pyran-4-yloxy)pyridin-2-yl)thiazol-5-amine] | < 200 |
| Cc1ccnc(Nc2cnc(-c3ncccc3C)s2)c1 [Example 114, 2-(3-methylpyridin-2-yl)-N-(4-methylpyridin-2-yl)thiazol-5-amine] | < 200 |
| Cc1ccnc(Nc2csc(-c3ncccc3C)n2)c1 [Example 115, 2-(3-methylpyridin-2-yl)-N-(4-methylpyridin-2-yl)thiazol-4-amine] | 500 to 5000 |
| Cc1ccnc(Nc2cc(-c3ncccc3C)ns2)c1 [Example 118, 3-(3-methylpyridin-2-yl)-N-(4-methylpyridin-2-yl)isothiazol-5-amine] | 500 to 5000 |
| c1ccc(-c2ccnc(Nc3cc(-c4ccccn4)ns3)c2)cc1 [Example 119, N-(4-phenylpyridin-2-yl)-3-(pyridin-2-yl)isothiazol-5-amine] | 500 to 5000 |
| FC(F)(F)c1ccnc(Nc2nc(-c3ccccn3)cs2)c1 [Example 120, 4-(pyridin-2-yl)-N-(4-(trifluoromethyl)pyridin-2-yl)thiazol-2-amine] | < 200 |
| COc1ccnc(Nc2nc(-c3ccccn3)cs2)c1 [Example 121, N-(4-methoxypyridin-2-yl)-4-(pyridin-2-yl)thiazol-2-amine] | 200 to 500 |

Further lines, results first:

| IC50 [nM] | SMILES |
| --- | --- |
| < 200 | FC(F)(F)c1ccnc(Nc2nc(-c3ccc(OC4CCOCC4)cn3)cs2)c1 [Example 104, 4-(5-(tetrahydro-2H-pyran-4-yloxy)pyridin-2-yl)-N-(4-(trifluoromethyl)pyridin-2-yl)thiazol-2-amine] |
| 200 to 500 | Cc1sc(Nc2cc(C(=O)NCC(F)(F)F)ccn2)nc1-c1ccc(OC2CCOCC2)cn1 [Example 106, 2-(5-methyl-4-(5-(tetrahydro-2H-pyran-4-yloxy)pyridin-2-yl)thiazol-2-ylamino)-N-(2,2,2-trifluoroethyl) isonicotinamide] |
| < 200 | CC(=O)N(C)c1cc(C(F)(F)F)cnc1Nc1nc(-c2cc3n(n2)CCC3)cs1 [Example 108, N-(2-(4-(5,6-dihydro-4H-pyrrolo[1,2-b]pyrazol-2-yl)thiazol-2-ylamino)-5-(trifluoromethyl)pyridin-3-yl)-N-methylacetamide] |
| 500 to 5000 | Cc1ccnc(Nc2nc(-c3ncccc3C)c(-c3ccccc3)s2)c1 [Example 110, 4-(3-methylpyridin-2-yl)-N-(4-methylpyridin-2-yl)-5-phenylthiazol-2-amine] |
| 200 to 500 | c1ccc(-c2ccnc(Nc3cnc(-c4ccccn4)s3)c2)cc1 [Example 112, N-(4-phenylpyridin-2-yl)-2-(pyridin-2-yl)thiazol-5-amine] |
| 500 to 5000 | COc1ccc(-c2ncc(Nc3cc(OC(C)C)ccn3)s2)nc1 [Example 113, N-(4-isopropoxypyridin-2-yl)-2-(5-methoxypyridin-2-yl)thiazol-5-amine] |
| 500 to 5000 | Cc1cccnc1Nc1cc(-c2ccc(OC3CCOCC3)cn2)ns1 [Example 116, N-(3-methylpyridin-2-yl)-3-(5-(tetrahydro-2H-pyran-4-yloxy)pyridin-2-yl)isothiazol-5-amine] |
| 500 to 5000 | COc1ccc(-c2cc(Nc3cc(OC(C)C)ccn3)sn2)nc1 [Example 117, N-(4-isopropoxypyridin-2-yl)-3-(5-methoxypyridin-2-yl)isothiazol-5-amine] |
